{"source": "the NIST ThermoML archive (doi:10.1021/acs.jced.5b01057)", "key": {"[1]": {"conditions": "Crystal; visual observation"}, "[2]": {"test": "mn = molality of the nth substance listed, in mol/kg", "conditions": "for surface tension liquid-gas: Pendant drop shape; for electrical conductivity: 100 kPa, Liquid, Alternating current cell with electrodes"}}, "note": "Numbers after ± are expanded uncertainties.", "data": [{"smiles": "CCCCCCCCCCCCNC1O[C@H](CO)[C@@H](O[C@@H]2O[C@H](CO)[C@H](O)[C@H](O)[C@H]2O)[C@H](O)[C@H]1O", "note": "(some centres not stated) [N-dodecyllactosylamine]", "values": [{"measurement": "Triple point temperature", "setting": "[1]", "result": "398.65 ± 0.5", "unit": "K"}]}, {"smiles": "CCCCCCCCCCCC[NH2+]C1O[C@H](CO)[C@@H](O[C@@H]2O[C@H](CO)[C@H](O)[C@H](O)[C@H]2O)[C@H](O)[C@H]1O.CCCCCCCCCCCC[NH2+]C1O[C@H](CO)[C@@H](O[C@@H]2O[C@H](CO)[C@H](O)[C@H](O)[C@H]2O)[C@H](O)[C@H]1O.O=C([O-])CCCCC(=O)[O-]", "note": "(some centres not stated) [N-dodecyllactosylammonium hexanedioate] + O", "values": [{"measurement": "surface tension liquid-gas", "setting": "[2]; 298.15 K, m1 = 0.0005", "result": "65.42 ± 1.4", "unit": "mN/m"}, {"measurement": "surface tension liquid-gas", "setting": "[2]; 298.15 K, m1 = 0.001", "result": "57.54 ± 1.2", "unit": "mN/m"}, {"measurement": "surface tension liquid-gas", "setting": "[2]; 298.15 K, m1 = 0.0015", "result": "52.44 ± 1.1", "unit": "mN/m"}, {"measurement": "surface tension liquid-gas", "setting": "[2]; 298.15 K, m1 = 0.002", "result": "48.72 ± 1.1", "unit": "mN/m"}, {"measurement": "surface tension liquid-gas", "setting": "[2]; 298.15 K, m1 = 0.0025", "result": "46.11 ± 1", "unit": "mN/m"}, {"measurement": "surface tension liquid-gas", "setting": "[2]; 298.15 K, m1 = 0.003", "result": "43.65 ± 0.95", "unit": "mN/m"}, {"measurement": "surface tension liquid-gas", "setting": "[2]; 298.15 K, m1 = 0.004", "result": "39.6 ± 0.87", "unit": "mN/m"}, {"measurement": "surface tension liquid-gas", "setting": "[2]; 298.15 K, m1 = 0.005", "result": "36.39 ± 0.8", "unit": "mN/m"}, {"measurement": "surface tension liquid-gas", "setting": "[2]; 298.15 K, m1 = 0.006", "result": "34.24 ± 0.75", "unit": "mN/m"}, {"measurement": "surface tension liquid-gas", "setting": "[2]; 298.15 K, m1 = 0.007", "result": "33.1 ± 0.73", "unit": "mN/m"}, {"measurement": "electrical conductivity", "setting": "[2]; 298.15 K, m1 = 0.00159", "result": "0.00604 ± 0.00061", "unit": "S/m"}, {"measurement": "electrical conductivity", "setting": "[2]; 298.15 K, m1 = 0.00317", "result": "0.0113 ± 0.0011", "unit": "S/m"}, {"measurement": "electrical conductivity", "setting": "[2]; 298.15 K, m1 = 0.00396", "result": "0.0137 ± 0.0014", "unit": "S/m"}, {"measurement": "electrical conductivity", "setting": "[2]; 298.15 K, m1 = 0.00474", "result": "0.0159 ± 0.0016", "unit": "S/m"}, {"measurement": "electrical conductivity", "setting": "[2]; 298.15 K, m1 = 0.00552", "result": "0.0182 ± 0.0019", "unit": "S/m"}, {"measurement": "electrical conductivity", "setting": "[2]; 298.15 K, m1 = 0.0063", "result": "0.0212 ± 0.0022", "unit": "S/m"}, {"measurement": "electrical conductivity", "setting": "[2]; 298.15 K, m1 = 0.00707", "result": "0.023 ± 0.0023", "unit": "S/m"}, {"measurement": "surface tension liquid-gas", "setting": "[2]; 323.15 K, m1 = 0.0004", "result": "62.97 ± 1.4", "unit": "mN/m"}, {"measurement": "surface tension liquid-gas", "setting": "[2]; 323.15 K, m1 = 0.0006", "result": "58.09 ± 1.3", "unit": "mN/m"}, {"measurement": "surface tension liquid-gas", "setting": "[2]; 323.15 K, m1 = 0.001", "result": "52.58 ± 1.1", "unit": "mN/m"}, {"measurement": "surface tension liquid-gas", "setting": "[2]; 323.15 K, m1 = 0.0014", "result": "47.88 ± 1", "unit": "mN/m"}, {"measurement": "surface tension liquid-gas", "setting": "[2]; 323.15 K, m1 = 0.002", "result": "43.86 ± 0.96", "unit": "mN/m"}, {"measurement": "surface tension liquid-gas", "setting": "[2]; 323.15 K, m1 = 0.0024", "result": "41.18 ± 0.9", "unit": "mN/m"}, {"measurement": "surface tension liquid-gas", "setting": "[2]; 323.15 K, m1 = 0.003", "result": "38.37 ± 0.84", "unit": "mN/m"}, {"measurement": "surface tension liquid-gas", "setting": "[2]; 323.15 K, m1 = 0.004", "result": "35.16 ± 0.77", "unit": "mN/m"}, {"measurement": "surface tension liquid-gas", "setting": "[2]; 323.15 K, m1 = 0.005", "result": "32.73 ± 0.72", "unit": "mN/m"}, {"measurement": "electrical conductivity", "setting": "[2]; 323.15 K, m1 = 0.00159", "result": "0.00898 ± 0.00091", "unit": "S/m"}, {"measurement": "electrical conductivity", "setting": "[2]; 323.15 K, m1 = 0.00317", "result": "0.0165 ± 0.0017", "unit": "S/m"}, {"measurement": "electrical conductivity", "setting": "[2]; 323.15 K, m1 = 0.00474", "result": "0.0258 ± 0.0026", "unit": "S/m"}, {"measurement": "electrical conductivity", "setting": "[2]; 323.15 K, m1 = 0.0063", "result": "0.0334 ± 0.0034", "unit": "S/m"}]}, {"smiles": "CCCCCC(=O)[O-].CCCCCCCCCCCC[NH2+]C1O[C@H](CO)[C@@H](O[C@@H]2O[C@H](CO)[C@H](O)[C@H](O)[C@H]2O)[C@H](O)[C@H]1O", "note": "(some centres not stated) [N-dodecyllactosylammonium hexanoate] + O", "values": [{"measurement": "surface tension liquid-gas", "setting": "[2]; 323.15 K, m1 = 0.4", "result": "58.74 ± 0.71", "unit": "mN/m"}, {"measurement": "surface tension liquid-gas", "setting": "[2]; 323.15 K, m1 = 0.6", "result": "52.11 ± 0.65", "unit": "mN/m"}, {"measurement": "surface tension liquid-gas", "setting": "[2]; 323.15 K, m1 = 0.8", "result": "48.69 ± 0.62", "unit": "mN/m"}, {"measurement": "surface tension liquid-gas", "setting": "[2]; 323.15 K, m1 = 1", "result": "45.57 ± 0.59", "unit": "mN/m"}, {"measurement": "surface tension liquid-gas", "setting": "[2]; 323.15 K, m1 = 1.6", "result": "37.41 ± 0.52", "unit": "mN/m"}, {"measurement": "surface tension liquid-gas", "setting": "[2]; 323.15 K, m1 = 2", "result": "34.64 ± 0.49", "unit": "mN/m"}, {"measurement": "surface tension liquid-gas", "setting": "[2]; 323.15 K, m1 = 2.4", "result": "32.22 ± 0.47", "unit": "mN/m"}, {"measurement": "surface tension liquid-gas", "setting": "[2]; 323.15 K, m1 = 3", "result": "30.32 ± 0.45", "unit": "mN/m"}, {"measurement": "electrical conductivity", "setting": "[2]; 323.15 K, m1 = 0.4", "result": "0.001851 ± 1e-06", "unit": "S/m"}, {"measurement": "electrical conductivity", "setting": "[2]; 323.15 K, m1 = 0.79", "result": "0.00335 ± 1e-05", "unit": "S/m"}, {"measurement": "electrical conductivity", "setting": "[2]; 323.15 K, m1 = 1.19", "result": "0.0048 ± 1e-05", "unit": "S/m"}, {"measurement": "electrical conductivity", "setting": "[2]; 323.15 K, m1 = 1.57", "result": "0.00609 ± 1e-05", "unit": "S/m"}, {"measurement": "electrical conductivity", "setting": "[2]; 323.15 K, m1 = 1.96", "result": "0.00734 ± 1e-05", "unit": "S/m"}, {"measurement": "electrical conductivity", "setting": "[2]; 323.15 K, m1 = 2.34", "result": "0.00864 ± 1e-05", "unit": "S/m"}, {"measurement": "electrical conductivity", "setting": "[2]; 323.15 K, m1 = 2.72", "result": "0.00986 ± 1e-05", "unit": "S/m"}, {"measurement": "electrical conductivity", "setting": "[2]; 323.15 K, m1 = 3.1", "result": "0.01083 ± 1e-05", "unit": "S/m"}]}]}
